# Laboratory results reported in paper PMC10258794, “To Fold or Not to Fold: Diastereomeric Optimization of an α-Helical Antimicrobial Peptide” (Journal of Medicinal Chemistry, 2023).
# Read-outs that look alike come from different tables or passages of the source.
# Columns and labels:
# [1] = system: E. coli W3110
# Experimental: (§1) Antimicrobial activity was determined for all peptides on E. coli W3110, P. aeruginosa PAO1, A. baumannii ATCC19606, K. pneumoniae NCTC418, and methicillin-resistant S. aureus COL and for selected peptides on P. aeruginosa PA14 and the polymyxin B-resistant derivatives PA14 4.13, PA14 4.18, and PA14 2P4 as well as the clinical isolates ZEM-1A and ZEM9A, K. pneumoniae OXA-48, Enterobacter cloacae, Stenotrophomonas maltophilia, B. cenocepacia, and Staphylococus epidermis. To determine the MIC, the broth microdilution method was used.[75] A single bacterial colony was grown in LB medium overnight at 37 °C and 180 rpm shaking. The compounds were prepared as stock solutions of 2 mg/mL in sterilized milliQ deionized water, added to the first well of 96-well sterile, polypropylene round-bottom microtiter plates (TPP, untreated, Corning Incorporated, Kennebunk, USA), and diluted serially by 1/2. […] The bacterial inoculum was prepared by measuring the absorbance of the overnight culture, which was diluted to concentration of the bacteria was quantified by measuring absorbance at 600 nm and diluted to an OD600 of 0.022 in MH medium pH 7.4 (Sigma-Aldrich, Buchs, Switzerland). The sample solutions (150 μL) were mixed with 4 μL of diluted bacterial suspension with a final inoculation of about 5 × 10^5 CFU. For each test, two columns of the plate were kept for sterility control (MH medium only) and growth control (MH medium with bacterial inoculum, no compound). […] The plates were incubated at 37 °C for 16–20 h under static conditions. 15 μL of 3-(4,5-dimethylthiazol-2-yl)-2,5-diphenyltetrazolium bromide (MTT)[76] (1 mg/mL in sterilized milliQ deionized water) was added to each well, and the plates were incubated at room temperature until MTT staining was completed. The MIC was defined as the lowest concentration of the dendrimer that inhibits the visible growth of the tested bacteria (yellow) with the unaided eye.
# [2] = system: K. pneumoniae NCTC418
# Experimental: as §1
# [3] = system: P. aeruginosa PAO1
# Experimental: as §1
# [4] = system: S. aureus COL MRSA; settings: for MIC S. aureus COL MRSA: MH broth pH 7.4, 16–20 h, 37 °C; for MIC S. aureus COL: supplementary CSV, ranges of Table 1 given as one number
# Experimental: as §1
# [5] = system: A. baumannii ATCC19606
# Experimental: as §1
# [6] = MH broth pH 7.4, 16–20 h, 37 °C
# [7] = supplementary CSV, ranges of Table 1 given as one number
SMILES,"MIC E. coli W3110 [1, 6] [µg/mL]","MIC K. pneumoniae NCTC418 [2, 6] [µg/mL]","MIC P. aeruginosa PAO1 [3, 6] [µg/mL]","MIC P. aeruginosa PAO1 [3, 7] [µg/mL]",MIC S. aureus COL MRSA [4] [µg/mL],MIC S. aureus COL [4] [µg/mL],"MIC A. baumannii ATCC19606 [5, 6] [µg/mL]","MIC A. baumannii ATCC19606 [5, 7] [µg/mL]","MIC E. coli W3110 [1, 7] [µg/mL]","MIC K. pneumoniae NCTC418 [2, 7] [µg/mL]"
"CC(C)C[C@H](NC(=O)[C@H](CC(C)C)NC(=O)[C@@H](CCCCN)NC(=O)[C@H](CC(C)C)NC(=O)[C@H](CC(C)C)NC(=O)[C@@H](CCCCN)NC(=O)[C@@H](CC(C)C)NC(=O)[C@H](CC(C)C)NC(=O)[C@H](CCCCN)NC(=O)[C@@H](N)CCCCN)C(=O)N[C@H](CC(C)C)C(N)=O [HP23, KKLlkLLkLLl]",2,>64,4 to 8,6,32,32,,,,
"CC(C)C[C@H](NC(=O)[C@H](CC(C)C)NC(=O)[C@@H](CCCCN)NC(=O)[C@H](CC(C)C)NC(=O)[C@H](CC(C)C)NC(=O)[C@@H](CCCCN)NC(=O)[C@H](CC(C)C)NC(=O)[C@H](CC(C)C)NC(=O)[C@@H](CCCCN)NC(=O)[C@H](N)CCCCN)C(=O)N[C@H](CC(C)C)C(N)=O [HP27, kkLLkLLkLLl]",4,>64,8,8,32,32,32,32,,
"CC(C)C[C@H](NC(=O)[C@H](CCCCN)NC(=O)[C@H](CC(C)C)NC(=O)[C@H](CC(C)C)NC(=O)[C@@H](CCCCN)NC(=O)[C@H](N)CCCCN)C(=O)N[C@@H](CC(C)C)C(=O)N[C@@H](CCCCN)C(=O)N[C@@H](CC(C)C)C(=O)N[C@H](CC(C)C)C(=O)N[C@H](CC(C)C)C(N)=O [HP18, kkLLKLLKLll]",4 to 8,>64,8,8,16 to 32,,8,8,6,
"CC(C)C[C@H](NC(=O)[C@H](CC(C)C)NC(=O)[C@H](CC(C)C)NC(=O)[C@H](CCCCN)NC(=O)[C@@H](CC(C)C)NC(=O)[C@@H](CC(C)C)NC(=O)[C@H](CCCCN)NC(=O)[C@H](CC(C)C)NC(=O)[C@H](CC(C)C)NC(=O)[C@H](CCCCN)NC(=O)[C@@H](N)CCCCN)C(N)=O [HP6, KKLLKllKLLL]",2,64,8,8,16,16,4,4,,64
"CC(C)C[C@H](NC(=O)[C@@H](CC(C)C)NC(=O)[C@H](CC(C)C)NC(=O)[C@@H](CCCCN)NC(=O)[C@H](CC(C)C)NC(=O)[C@@H](CC(C)C)NC(=O)[C@H](CCCCN)NC(=O)[C@@H](CC(C)C)NC(=O)[C@H](CC(C)C)NC(=O)[C@@H](CCCCN)NC(=O)[C@@H](N)CCCCN)C(N)=O [HP30, KkLlKlLkLlL]",8,>64,8 to 16,12,64,64,32,32,,
"CC(C)C[C@H](NC(=O)[C@@H](CC(C)C)NC(=O)[C@H](CCCCN)NC(=O)[C@@H](CC(C)C)NC(=O)[C@H](CC(C)C)NC(=O)[C@@H](CCCCN)NC(=O)[C@H](CC(C)C)NC(=O)[C@@H](CC(C)C)NC(=O)[C@H](CCCCN)NC(=O)[C@H](N)CCCCN)C(=O)N[C@H](CC(C)C)C(N)=O [HP31, kKlLkLlKlLl]",8,>64,8,8,32,32,32,32,,
"CC(C)C[C@H](NC(=O)[C@@H](CC(C)C)NC(=O)[C@@H](CC(C)C)NC(=O)[C@H](CCCCN)NC(=O)[C@H](CC(C)C)NC(=O)[C@H](CC(C)C)NC(=O)[C@H](CCCCN)NC(=O)[C@H](CC(C)C)NC(=O)[C@@H](CC(C)C)NC(=O)[C@@H](CCCCN)NC(=O)[C@@H](N)CCCCN)C(N)=O [HP17, KklLKLLKllL]",8,32 to 64,16,16,32 to 64,48,32,32,,48
"CC(C)C[C@H](NC(=O)[C@H](CC(C)C)NC(=O)[C@H](CC(C)C)NC(=O)[C@H](CCCCN)NC(=O)[C@H](CC(C)C)NC(=O)[C@@H](CC(C)C)NC(=O)[C@H](CCCCN)NC(=O)[C@@H](CC(C)C)NC(=O)[C@@H](CC(C)C)NC(=O)[C@@H](CCCCN)NC(=O)[C@@H](N)CCCCN)C(N)=O [HP12, KkllKlLKLLL]",2 to 4,8 to 16,4 to 8,6,4,4,8,8,3,
"CC(C)C[C@H](NC(=O)[C@H](CC(C)C)NC(=O)[C@H](CC(C)C)NC(=O)[C@H](CCCCN)NC(=O)[C@@H](CC(C)C)NC(=O)[C@@H](CC(C)C)NC(=O)[C@H](CCCCN)NC(=O)[C@@H](CC(C)C)NC(=O)[C@@H](CC(C)C)NC(=O)[C@H](CCCCN)NC(=O)[C@@H](N)CCCCN)C(N)=O [HP14, KKllKllKLLL]",2,>64,8,8,16 to 32,,4 to 8,6,,
"CC(C)C[C@H](NC(=O)[C@H](CC(C)C)NC(=O)[C@@H](CC(C)C)NC(=O)[C@@H](CCCCN)NC(=O)[C@H](CC(C)C)NC(=O)[C@H](CC(C)C)NC(=O)[C@H](CCCCN)NC(=O)[C@@H](CC(C)C)NC(=O)[C@@H](CC(C)C)NC(=O)[C@H](CCCCN)NC(=O)[C@@H](N)CCCCN)C(N)=O [HP20, KKllKLLklLL]",8,>64,16,16,>64,,32 to 64,48,,
"CC(C)C[C@H](NC(=O)[C@H](CC(C)C)NC(=O)[C@H](CC(C)C)NC(=O)[C@H](CCCCN)NC(=O)[C@@H](CC(C)C)NC(=O)[C@@H](CC(C)C)NC(=O)[C@@H](CCCCN)NC(=O)[C@H](CC(C)C)NC(=O)[C@H](CC(C)C)NC(=O)[C@H](CCCCN)NC(=O)[C@@H](N)CCCCN)C(N)=O [HP9, KKLLkllKLLL]",8,>64,64,64,>64,,,,,
